{"source": "patent US10766855B2", "about": "“Hydroxamate triterpenoid derivatives” (VIVACELL BIOTECHNOLOGY ESPANA S.L., priority 2016, dated 2020)", "key": {"HIF-1α": {"tested_on": "HIF-1α", "test": "HIF-1α transactivation assay in NIH-3T3-EPO-Luc fibroblast cells", "assay_type": "cell-based", "conditions": "6 h stimulation", "procedure": "To investigate the biological activities of the different compounds, HIF-1α transactivation assays were performed either in NIH-3T3-EPO-Luc cells (Table II) or in HaCaT-EPO-luc cells (FIG. 2). The NIH3T3-EPO-luc and HaCaT-EPO-luc cells have been stably transfected with the plasmid Epo-Luc plasmid. The EPO-Hypoxia Response Element (HRE)-luciferase reporter plasmid contains three copies of the HRE consensus sequence from the promoter of the erythropoietin gene fused to the luciferase gene. NIH3T3-EPO-luc cells were maintained at 37° C. in a humidified atmosphere containing 5% CO2 in DMEM supplemented with 10% fetal calf serum (FBS), and 1% (v/v) penicillin/streptomycin. DFX was purchased from Sigma-Aldrich (USA). Cells (1×10^4/well in 96 well plates) were seeded the day before the assay. […] After six hours of stimulation the cells were lysed in 25 mM Tris-phosphate pH 7.8, 8 mM MgCl2, 1 mM DTT, 1% Triton X-100, and 7% glycerol during 15 min at RT in a horizontal shaker. Luciferase activity is measured using a microplate luminometer (Berthold) following the instructions of the luciferase assay kit (Promega, Madison, Wis., USA)."}, "NF-κB": {"tested_on": "NF-κB", "test": "NF-κB inhibition in NIH-3T3-KBF-Luc cells stimulated with TNFα", "assay_type": "cell-based", "conditions": "TNFα 30 ng/ml, 6 h", "procedure": "To further study the target selectivity of the compounds described in the present invention the effect of the natural triterpenoids (OA; BA, UA, and MA), compounds II to XV of Formula (I) disclosed in present invention, and of comparative compound CDDO-Me on NF-κB inhibition, STAT-3 inhibition, Nrf2 activation and TGR5 activation was analyzed. For this study cell lines NIH-3T3-KBF-Luc, HeLa-STAT3-Luc, HaCaT-ARE-Luc and CHO-TGR5-CRE-luc were used respectively. The NIH3T3-KBF-Luc cell line stably transfected with the plasmid KBF-Luc plasmid, which contains three copies of NF-κB binding site (from major histocompatibility complex promoter), fused to a minimal simian virus 40 promoter driving the luciferase gene. Cells (1×10^4/well) were seeded in 96-well plates, treated with increasing concentrations of the compounds II to XV for 15 min and then stimulated with 30 ng/ml TNFα. After 6 h the luciferase activity in the cell lysates was measured as indicated above."}, "Nrf2": {"tested_on": "Nrf2", "test": "Nrf2 activation/inhibition in HaCaT-ARE-Luc cells", "assay_type": "cell-based", "conditions": "6 h", "procedure": "The HeLa-STAT3-luc cells stably transfected with the plasmid 4×M67 pTATA TK-Luc. Cells (20×10^3 cells/ml) were seeded in 96-well plates, treated with increasing concentrations of the compounds II to XIV, and of comparative compound CDDO-Me, for 15 min and then stimulated with IFN-γ 25 IU/ml. After 6 h the luciferase activity in the cell lysates was measured as indicated above. […] The HaCaT-ARE-Luc cell line contains the Nqo1 Antioxidant Response Element (ARE)-Luc reporter plasmid. ARE is activated by all members of the CNC family of factors (Nrf1, Nrf2, Nrf3 and p45 NF-E2). The cells were cultivated in 96-well plates at the concentration of 25×10^3 cells/well in a CO2 incubator at 37° C. For induction of Nrf2 activation the cells were treated with increasing concentrations of the compounds II to XV, and of comparative compound CDDO-Me, for 6 h. As a positive control the cells were treated with 0.02 mM of the antioxidant Tert-butyl-hydroquinone (TBHQ). Luciferase activity in the cell lysates was measured as indicated above and the EC50 calculated (Table III). The CHO-TGR5-CRE-Luc cells stably transfected with the pTGR5 and CRE-Luc. The CRE-responsive luciferase construct encodes the firefly luciferase reporter gene under the control of a minimal (m)CMV promoter and tandem repeats of the CRE transcriptional response element (TRE) and is useful to monitor cAMP signaling pathways activated by TGR5 agonists. Cells (1×10^4/well) were seeded in 96-well plates, treated with increasing concentrations of the compounds II to XV and CDDO-Me, for 6 h. As a positive control the cells were treated with 10 μM of LCA (lithocholic acid). Luciferase activity in the cell lysates was measured as indicated above and the EC50 calculated (Table III)."}, "TGR5": {"tested_on": "TGR5", "test": "TGR5 activation in CHO-TGR5-CRE-Luc cells", "assay_type": "cell-based", "conditions": "6 h", "quoted_text": "The CHO-TGR5-CRE-Luc cells stably transfected with the pTGR5 and CRE-Luc. […] As a positive control the cells were treated with 10 μM of LCA (lithocholic acid). Luciferase activity in the cell lysates was measured as indicated above and the EC50 calculated (Table III)."}, "HUVEC": {"tested_on": "HUVEC", "test": "Endothelial cell tube formation (angiogenesis) in HUVEC co-cultured with fibroblasts", "assay_type": "cell-based, human", "conditions": "1 μM, 7 days", "procedure": "Measurements of endothelial cell tube formation as a model of angiogenesis in green fluorescent Human endothelial vascular cells (HUVEC) co-cultured with primary fibroblasts and stimulated separately with compound VII (1 μM), rhFGF (10 ng/ml) and VEGFA (10 ng/ml) for 7 days. Values represent the mean±SEM (n=3).\nTo test the functional consequences of compound VII stimulation in a physiological model, endothelial cell tube formation was measured as a model of angiogenesis. CellPlayer™ GFP AngioKit-96 (Essen BioScience Inc., Welwyn Garden City, UK) was supplied as growing co-cultures of human matrix (normal human dermal fibroblast, NHDF) and endothelial cells (HUVEC) at the earliest stages of tubule formation. CellPlayer 96-well kinetic angiogenesis assay was performed according to the manufacturer's protocol. Briefly, lentivirally infected green fluorescent protein (GFP)-HUVECs were cocultured with normal human dermal fibroblasts in a 96-well microplate. The plate was placed in IncuCyte, and images were automatically acquired in both phase and fluorescence every 6 hours for 7 days. […] Tube formation over the 7-day assay was quantified using the Essen BioScience Angiogenesis Analysis Module. […] Briefly, the fluorescent images were analyzed to generate a segmentation mask closely resembling the in vitro network. […]"}}, "note": "pEC50, pIC50: −log10 of the molar value."}
{"smiles": "C=C(C)[C@@H]1CC[C@]2(C(=O)NO)CC[C@]3(C)[C@H](CC[C@@H]4[C@@]5(C)CC[C@H](O)C(C)(C)[C@@H]5CC[C@]43C)[C@@H]12", "note": "[Compound VII, (3β) 3-Hydroxy-N-hydroxy-lup-20(29)-en-28-amide]", "values": [{"measurement": "Efficacy HIF-1α (IRA coefficient)", "setting": "HIF-1α; relative to 150 μM DFX", "value": 0.36}, {"measurement": "pEC50", "setting": "HIF-1α; Fibroblast, read-out: Potency EC50 HIF-1α", "value": 5.32}, {"measurement": "pIC50", "setting": "NF-κB", "value": "< 4.30"}, {"measurement": "pEC50", "setting": "Nrf2", "value": "< 4.30"}, {"measurement": "pEC50", "setting": "TGR5", "value": "< 4.30"}, {"measurement": "network length in HUVEC cells", "setting": "HUVEC", "value": "increased significantly the network length"}]}
